Measured values reported in US20260022142A1, “MACROCYCLIC IMMUNOMODULATORS” (Bristol-Myers Squibb Company, priority 2022, published 2026).
Bridge positions count the residues as written; N and C are the ends. Square brackets hold non-standard residues; d marks the D form. Peptide text beside a SMILES is read from it. * marks the point of attachment. Bip = N[C@@H](Cc1ccc(-c2ccccc2)cc1)C(=O)O; Phe(3-Me) = Cc1cccc(C[C@H](N)C(=O)O)c1; Cha = N[C@@H](CC1CCCCC1)C(=O)O; Cit = NC(=O)NCCC[C@H](N)C(=O)O; Carboxymethyl = O=C(O)C*; Orn = NCCC[C@H](N)C(=O)O; Aun = NCCCCCCCCCCC(=O)O; Dab = NCC[C@H](N)C(=O)O; Dap = NC[C@H](N)C(=O)O

These compounds were tested against T1, PD-1/PD-L1 interaction (PE-labeled human PD-L1-Ig binding to Jurkat cell line over-expressing human PD-1) (Homo sapiens, UniProt Q15116) (assay: Jurkat-PD-1 Cell Binding High-Content Screening Assay (CBA)). Settings: Jurkat cell line over-expressing human PD-1; PE-labeled PD-L1-Ig 20 nM final; read-out: Jurkat hPD1-PDL1 IC50.
T1 construct: expressed in transfected cells; host or cells: Jurkat
Assay type: cell-based
In short: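 Jurkat cells stably over-expressing human PD-1 were seeded in DMEM with 10% fetal calf serum and pre-incubated with compound for 2 h at 37° C. PE-labeled human PD-L1-Ig was then added at 20 nM final for 1 hour, after which cells were fixed with paraformaldehyde, Hoechst-stained and imaged by high-content microscopy.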

T1 sequence (Q15116 25-288): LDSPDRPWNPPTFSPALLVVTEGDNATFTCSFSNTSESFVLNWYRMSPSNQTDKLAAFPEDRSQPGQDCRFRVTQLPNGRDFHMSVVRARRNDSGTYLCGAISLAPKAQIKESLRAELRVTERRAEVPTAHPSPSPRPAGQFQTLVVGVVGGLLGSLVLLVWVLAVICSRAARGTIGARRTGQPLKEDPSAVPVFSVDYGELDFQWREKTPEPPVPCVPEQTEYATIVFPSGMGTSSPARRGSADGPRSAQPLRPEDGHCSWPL

Compound	IC50 [nM]
Cc1cccc(C[C@@H]2NC(=O)[C@H](CC(=O)O)NC(=O)[C@H](Cc3ccc(OCC(=O)O)cc3)NC(=O)[C@H](Cc3ccc(OCC(=O)O)cc3)NC(=O)CSC[C@@H](C(=O)NCC(=O)N[C@@H](CCCCN)C(=O)NCCCCCCCCCCC(=O)O)NC(=O)[C@H](CO)NC(=O)[C@H](C(C)C)NC(=O)[C@H](CC3CCCCC3)NC(=O)[C@H](CCN)NC(=O)[C@@H](CC(C)C)NC(=O)[C@H](CCCN)NC(=O)[C@H](C(C)C)NC(=O)[C@H](Cc3ccc(-c4ccccc4)cc3)NC(=O)[C@H](CC(C)C)NC2=O)c1 [Compound 1069] ({CH2CO}-Y(Carboxymethyl)Y(Carboxymethyl)D[Phe(3-Me)]L[Bip]V[Orn][dL][Dab][Cha]VSCGK[Aun]-OH; thioether N-14)	41.7
Cc1cccc(C[C@@H]2NC(=O)[C@H](CC(=O)O)NC(=O)[C@H](Cc3ccc(OCC(=O)O)cc3)NC(=O)[C@H](CN)NC(=O)CSC[C@@H](C(=O)N[C@@H](C)C(=O)N[C@@H](CCCCN)C(=O)NCCCCCCCCCCC(=O)O)NC(=O)[C@H]([C@@H](C)O)NC(=O)[C@H](C(C)C)NC(=O)[C@H](CC3CCCCC3)NC(=O)[C@H](CCN)NC(=O)[C@@H](CC(C)C)NC(=O)[C@H](CCCN)NC(=O)[C@H](CCCNC(N)=O)NC(=O)[C@H](Cc3ccc(-c4ccccc4)cc3)NC(=O)[C@H](C(C)C)NC2=O)c1 [Compound 1070] ({CH2CO}-[Dap]Y(Carboxymethyl)D[Phe(3-Me)]V[Bip][Cit][Orn][dL][Dab][Cha]VTCAK[Aun]-OH; thioether N-14)	10.4
Cc1cccc(C[C@@H]2NC(=O)[C@H](CC(=O)O)NC(=O)[C@H](Cc3ccc(OCC(=O)O)cc3)NC(=O)[C@H](Cc3ccc(OCC(=O)O)cc3)NC(=O)CSC[C@@H](C(=O)NCC(=O)N[C@@H](CCCN)C(=O)NCCCCCCCCCCC(=O)O)NC(=O)[C@H](CO)NC(=O)[C@H](C(C)C)NC(=O)[C@H](CC3CCCCC3)NC(=O)[C@H](CCN)NC(=O)[C@@H](CC(C)C)NC(=O)[C@H](CCCN)NC(=O)[C@H](C(C)C)NC(=O)[C@H](Cc3ccc(-c4ccccc4)cc3)NC(=O)[C@H](CC(C)C)NC2=O)c1 [Compound 1071] ({CH2CO}-Y(Carboxymethyl)Y(Carboxymethyl)D[Phe(3-Me)]L[Bip]V[Orn][dL][Dab][Cha]VSCG[Orn][Aun]-OH; thioether N-14)	42.5
Cc1cccc(C[C@@H]2NC(=O)[C@H](CC(=O)O)NC(=O)[C@H](Cc3ccc(OCC(=O)O)cc3)NC(=O)[C@H](CN)NC(=O)CSC[C@@H](C(=O)N[C@@H](C)C(=O)N[C@@H](CCCN)C(=O)NCCCCCCCCCCC(=O)O)NC(=O)[C@H]([C@@H](C)O)NC(=O)[C@H](C(C)C)NC(=O)[C@H](CC3CCCCC3)NC(=O)[C@H](CCN)NC(=O)[C@@H](CC(C)C)NC(=O)[C@H](CCCN)NC(=O)[C@H](CCCNC(N)=O)NC(=O)[C@H](Cc3ccc(-c4ccccc4)cc3)NC(=O)[C@H](C(C)C)NC2=O)c1 [Compound 1072] ({CH2CO}-[Dap]Y(Carboxymethyl)D[Phe(3-Me)]V[Bip][Cit][Orn][dL][Dab][Cha]VTCA[Orn][Aun]-OH; thioether N-14)	14.2
Cc1cccc(C[C@@H]2NC(=O)[C@H](CC(=O)O)NC(=O)[C@H](Cc3ccc(OCC(=O)O)cc3)NC(=O)[C@H](Cc3ccc(OCC(=O)O)cc3)NC(=O)CSC[C@@H](C(=O)NCC(=O)N[C@@H](CCCCN)C(=O)NCC(=O)NCCCCCCCCCCC(=O)O)NC(=O)[C@H](CO)NC(=O)[C@H](C(C)C)NC(=O)[C@H](CC3CCCCC3)NC(=O)[C@H](CCN)NC(=O)[C@@H](CC(C)C)NC(=O)[C@H](CCCN)NC(=O)[C@H](C(C)C)NC(=O)[C@H](Cc3ccc(-c4ccccc4)cc3)NC(=O)[C@H](CC(C)C)NC2=O)c1 [Compound 1073] ({CH2CO}-Y(Carboxymethyl)Y(Carboxymethyl)D[Phe(3-Me)]L[Bip]V[Orn][dL][Dab][Cha]VSCGKG[Aun]-OH; thioether N-14)	15.2
CC(C)C[C@H]1NC(=O)[C@H](CCCN)NC(=O)[C@H](C(C)C)NC(=O)[C@H](Cc2ccc(-c3ccccc3)cc2)NC(=O)[C@H](C(C)C)NC(=O)[C@H](Cc2c[nH]c3ccccc23)NC(=O)[C@H](CC(=O)O)NC(=O)[C@H](Cc2ccc(OCC(=O)O)cc2)NC(=O)[C@H](CN)NC(=O)CSC[C@@H](C(=O)N[C@@H](CN)C(=O)NCCCCCCCCCCC(=O)O)NC(=O)[C@H]([C@@H](C)O)NC(=O)[C@H](C(C)C)NC(=O)[C@H](CC2CCCCC2)NC(=O)[C@H](Cc2c[nH]cn2)NC1=O [Compound 1074] ({CH2CO}-[Dap]Y(Carboxymethyl)DWV[Bip]V[Orn][dL]H[Cha]VTC[Dap][Aun]-OH; thioether N-14)	69.5
CC(C)C[C@H]1NC(=O)[C@H](CCCN)NC(=O)[C@H](C(C)C)NC(=O)[C@H](Cc2ccc(-c3ccccc3)cc2)NC(=O)[C@H](C(C)C)NC(=O)[C@H](Cc2c[nH]c3ccccc23)NC(=O)[C@H](CC(=O)O)NC(=O)[C@H](Cc2ccc(OCC(=O)O)cc2)NC(=O)[C@H](CN)NC(=O)CSC[C@@H](C(=O)N[C@@H](CCN)C(=O)NCCCCCCCCCCC(=O)O)NC(=O)[C@H]([C@@H](C)O)NC(=O)[C@H](C(C)C)NC(=O)[C@H](CC2CCCCC2)NC(=O)[C@H](Cc2c[nH]cn2)NC1=O [Compound 1075] ({CH2CO}-[Dap]Y(Carboxymethyl)DWV[Bip]V[Orn][dL]H[Cha]VTC[Dab][Aun]-OH; thioether N-14)	34.6
CC(C)C[C@H]1NC(=O)[C@H](CCCN)NC(=O)[C@H](C(C)C)NC(=O)[C@H](Cc2ccc(-c3ccccc3)cc2)NC(=O)[C@H](C(C)C)NC(=O)[C@H](Cc2c[nH]c3ccccc23)NC(=O)[C@H](CC(=O)O)NC(=O)[C@H](Cc2ccc(OCC(=O)O)cc2)NC(=O)[C@H](CN)NC(=O)CSC[C@@H](C(=O)N[C@@H](CCCN)C(=O)NCCCCCCCCCCC(=O)O)NC(=O)[C@H]([C@@H](C)O)NC(=O)[C@H](C(C)C)NC(=O)[C@H](CC2CCCCC2)NC(=O)[C@H](Cc2c[nH]cn2)NC1=O [Compound 1076] ({CH2CO}-[Dap]Y(Carboxymethyl)DWV[Bip]V[Orn][dL]H[Cha]VTC[Orn][Aun]-OH; thioether N-14)	44.1
CC(C)C[C@H]1NC(=O)[C@H](CCCN)NC(=O)[C@H](C(C)C)NC(=O)[C@H](Cc2ccc(-c3ccccc3)cc2)NC(=O)[C@H](C(C)C)NC(=O)[C@H](Cc2c[nH]c3ccccc23)NC(=O)[C@H](CC(=O)O)NC(=O)[C@H](Cc2ccc(OCC(=O)O)cc2)NC(=O)[C@H](CN)NC(=O)CSC[C@@H](C(=O)N[C@@H](CCCCN)C(=O)NCCCCCCCCCCC(=O)O)NC(=O)[C@H]([C@@H](C)O)NC(=O)[C@H](C(C)C)NC(=O)[C@H](CC2CCCCC2)NC(=O)[C@H](Cc2c[nH]cn2)NC1=O [Compound 1077] ({CH2CO}-[Dap]Y(Carboxymethyl)DWV[Bip]V[Orn][dL]H[Cha]VTCK[Aun]-OH; thioether N-14)	46.7
CC(C)C[C@H]1NC(=O)[C@H](CCCN)NC(=O)[C@H](C(C)C)NC(=O)[C@H](Cc2ccc(-c3ccccc3)cc2)NC(=O)[C@H](C(C)C)NC(=O)[C@H](Cc2c[nH]c3ccccc23)NC(=O)[C@H](CC(=O)O)NC(=O)[C@H](Cc2ccc(OCC(=O)O)cc2)NC(=O)[C@H](CN)NC(=O)CSC[C@@H](C(=O)N[C@@H](CC(=O)O)C(=O)NCCCCCCCCCCC(=O)O)NC(=O)[C@H]([C@@H](C)O)NC(=O)[C@H](C(C)C)NC(=O)[C@H](CC2CCCCC2)NC(=O)[C@H](Cc2c[nH]cn2)NC1=O [Compound 1078] ({CH2CO}-[Dap]Y(Carboxymethyl)DWV[Bip]V[Orn][dL]H[Cha]VTCD[Aun]-OH; thioether N-14)	84.9
CC(C)C[C@H]1NC(=O)[C@H](CCCN)NC(=O)[C@H](C(C)C)NC(=O)[C@H](Cc2ccc(-c3ccccc3)cc2)NC(=O)[C@H](C(C)C)NC(=O)[C@H](Cc2c[nH]c3ccccc23)NC(=O)[C@H](CC(=O)O)NC(=O)[C@H](Cc2ccc(OCC(=O)O)cc2)NC(=O)[C@H](CN)NC(=O)CSC[C@@H](C(=O)N[C@@H](CCC(=O)O)C(=O)NCCCCCCCCCCC(=O)O)NC(=O)[C@H]([C@@H](C)O)NC(=O)[C@H](C(C)C)NC(=O)[C@H](CC2CCCCC2)NC(=O)[C@H](Cc2c[nH]cn2)NC1=O [Compound 1079] ({CH2CO}-[Dap]Y(Carboxymethyl)DWV[Bip]V[Orn][dL]H[Cha]VTCE[Aun]-OH; thioether N-14)	55.6
CC(C)C[C@H]1NC(=O)[C@H](CCCN)NC(=O)[C@H](C(C)C)NC(=O)[C@H](Cc2ccc(-c3ccccc3)cc2)NC(=O)[C@H](C(C)C)NC(=O)[C@H](Cc2c[nH]c3ccccc23)NC(=O)[C@H](CC(=O)O)NC(=O)[C@H](Cc2ccc(OCC(=O)O)cc2)NC(=O)[C@H](CN)NC(=O)CSC[C@@H](C(=O)N[C@@H](C)C(=O)N[C@@H](CCC(=O)O)C(=O)NCCCCCCCCCCC(=O)O)NC(=O)[C@H]([C@@H](C)O)NC(=O)[C@H](C(C)C)NC(=O)[C@H](CC2CCCCC2)NC(=O)[C@H](Cc2cnc[nH]2)NC1=O [Compound 1080] ({CH2CO}-[Dap]Y(Carboxymethyl)DWV[Bip]V[Orn][dL]H[Cha]VTCAE[Aun]-OH; thioether N-14)	35.7
CC(C)C[C@H]1NC(=O)[C@H](CCCN)NC(=O)[C@H](C(C)C)NC(=O)[C@H](Cc2ccc(-c3ccccc3)cc2)NC(=O)[C@H](C(C)C)NC(=O)[C@H](Cc2c[nH]c3ccccc23)NC(=O)[C@H](CC(=O)O)NC(=O)[C@H](Cc2ccc(OCC(=O)O)cc2)NC(=O)[C@H](CN)NC(=O)CSC[C@@H](C(=O)N[C@@H](C)C(=O)N[C@@H](CN)C(=O)NCCCCCCCCCCC(=O)O)NC(=O)[C@H]([C@@H](C)O)NC(=O)[C@H](C(C)C)NC(=O)[C@H](CC2CCCCC2)NC(=O)[C@H](Cc2cnc[nH]2)NC1=O [Compound 1081] ({CH2CO}-[Dap]Y(Carboxymethyl)DWV[Bip]V[Orn][dL]H[Cha]VTCA[Dap][Aun]-OH; thioether N-14)	28.5
